Assay results from ChEMBL document CHEMBL2384948, “Aeruginosins from a Microcystis sp. bloom material collected in Varanasi, India” (J Nat Prod, 2013).

Target: Trypsin (Homo sapiens, UniProt P07477+P07478+P35030)
Test: Inhibition of trypsin (unknown origin)
Assay type: protein assay

| IC50 | SMILES |
| --- | --- |
| 4.3 µM | CC(C)C[C@@H](NC(=O)[C@H](O)Cc1ccc(O)c(Cl)c1)C(=O)N1[C@H](C(=O)NCCCCNC(=N)N)C[C@@H]2CC[C@@H](O)C[C@@H]21 |
| 0.5 µg/mL | N=C(N)NCCCCNC(=O)[C@@H]1C[C@@H]2CC[C@@H](O)C[C@@H]2N1C(=O)[C@H](Cc1ccccc1)NC(=O)[C@@H](O)Cc1ccc(O)cc1 |
| 2.8 µM | CC[C@H](C)[C@@H](NC(=O)[C@@H](O)Cc1ccc(O)c(Cl)c1)C(=O)N1[C@H](C(=O)NCCCCNC(=N)N)C[C@@H]2CC[C@@H](O)C[C@@H]21 |
| 4.1 µM | CC(C)C[C@@H](NC(=O)[C@H](O)Cc1ccc(O)c(Br)c1)C(=O)N1[C@H](C(=O)NCCCCNC(=N)N)C[C@@H]2CC[C@@H](O)C[C@@H]21 |
